# Biological target: T1, PRMT5/MEP50 (Homo sapiens, UniProt O14744)
# T1 construct: Expressed full-length human Flag-PRMT5/6His-MeP50 protein complex was purified; made in house; host or cells: Spodoptera frugiperda (SF9) insect cells, baculovirus (pDEST8)
# Assay: PRMT5 Biochemical Assay (PRMT5/MEP50 enzyme assay on peptide substrate, 3H-SAM Flashplate)
# Conditions: PRMT5 biochemical assay, Table C-2; read-out: Biochemical IC50
# Excerpt: S-adenosylmethionine (SAM), S-adenosylhomocysteine (SAH), bicine, KCl, Tween20, dimethylsulfoxide (DMSO), bovine skin gelatin (BSG), and Tris(2-carboxyethyl)phosphine hydrochloride solution (TCEP) were purchased from Sigma-Aldrich at the highest level of purity possible. ^3H-SAM was purchase from American Radiolabeled Chemicals with a specific activity of 80 Ci/mmol 384-well streptavidin Flashplates were purchased from PerkinElmer.
# Peptide representative of human histone H4 residues 1-15 was synthesized with a C-terminal linker-affinity tag motif and a C-terminal amide cap by 21st Century Biochemicals. […] The sequence was Ac-[…][K-Biot]-amide (SEQ ID NO.:3).
# Full-length human MEP50 (NM_024102) clone was amplified from a human testis cDNA library incorporating a 5′ sequence encoding a 6-histidine tag (MHHHHHH) (SEQ ID NO.:5) fused directly to Arg 2 of MEP50. The amplified genes were sublconed into pENTR/D/TEV (Life Technologies) and subsequently transferred by Gateway™ attL×attR recombination to pDEST8 baculvirus expression vector (Life Technologies).
# Recombinant baculovirus and Baculovirus-Infected Insect Cells (BIIC) were generated according to Bac-to-Bac kit instructions (Life Technologies) and Wasilko, 2006, respectively. Protein over-expression was accomplished by infecting exponentially growing Spodoptera frugiperda (SF9) cell culture at 1.2×10^6 cell/ml with a 5000 fold dilution of BIIC stock. Infections were carried out at 27° C. for 72 hours, harvested by centrifugation, and stored at −80° C. for purification.
# Flag-PRMT5/6His-MeP50 was eluted with 300 mM Imidazole in the same buffer. […] Reference: Wasilko, D. J. and S. E. Lee: “TIPS: titerless infected-cells preservation and scale-up” Bioprocess J., 5 (2006), pp. 29-32.
# General Procedure for PRMT5/MEP50 Enzyme Assays on Peptide Substrates.
# The assays were all performed in a buffer consisting of 20 mM Bicine (pH=7.6), 1 mM TCEP, 0.005% BSG, and 0.002% Tween20, prepared on the day of use. Compounds in 100% DMSO (1 ul) were spotted into a polypropylene 384-well V-bottom plates (Greiner) using a Platemate Plus outfitted with a 384-channel head (Thermo Scientific). DMSO (1 ul) was added to Columns 11, 12, 23, 24, rows A-H for the maximum signal control and 1 ul of SAH, a known product and inhibitor of PRMT5/MEP50, was added to columns 11, 12, 23, 24, rows I-P for the minimum signal control. A cocktail (40 ul) containing the PRMT5/MEP50 enzyme and the peptide was added by Multidrop Combi (Thermo-Fisher). The compounds were allowed to incubate with PRMT5/MEP50 for 30 min at 25 degrees Celsius, then a cocktail (10 ul) containing ^3H-SAM was added to initiate the reaction (final volume=51 ul). The final concentrations of the components were as follows: PRMT5/MEP50 was 4 nM, ^3H-SAM was 75 nM, peptide was 40 nM, SAH in the minimum signal control wells was 100 uM, and the DMSO concentration was 1%. The assays were stopped by the addition of non-radioactive SAM (10 ul) to a final concentration of 600 uM, which dilutes the ^3H-SAM to a level where its incorporation into the peptide substrate is no longer detectable. 50 ul of the reaction in the 384-well polypropylene plate was then transferred to a 384-well Flashplate and the biotinylated peptides were allowed to bind to the streptavidin surface for at least 1 hour before being washed three times with 0.1% Tween20 in a Biotek ELx405 plate washer. The plates were then read in a PerkinElmer TopCount plate reader to measure the quantity of ^3H-labeled peptide bound to the Flashplate surface, measured as disintegrations per minute (dpm) or alternatively, referred to as counts per minute (cpm).
# where dpm=disintegrations per minute, cmpd=signal in assay well, and min and max are the respective minimum and maximum signal controls.
# where top and bottom are the normally allowed to float, but may be fixed at 100 or 0 respectively in a 3-parameter fit.
# T1 sequence (O14744 with tags, fused parts or gaps): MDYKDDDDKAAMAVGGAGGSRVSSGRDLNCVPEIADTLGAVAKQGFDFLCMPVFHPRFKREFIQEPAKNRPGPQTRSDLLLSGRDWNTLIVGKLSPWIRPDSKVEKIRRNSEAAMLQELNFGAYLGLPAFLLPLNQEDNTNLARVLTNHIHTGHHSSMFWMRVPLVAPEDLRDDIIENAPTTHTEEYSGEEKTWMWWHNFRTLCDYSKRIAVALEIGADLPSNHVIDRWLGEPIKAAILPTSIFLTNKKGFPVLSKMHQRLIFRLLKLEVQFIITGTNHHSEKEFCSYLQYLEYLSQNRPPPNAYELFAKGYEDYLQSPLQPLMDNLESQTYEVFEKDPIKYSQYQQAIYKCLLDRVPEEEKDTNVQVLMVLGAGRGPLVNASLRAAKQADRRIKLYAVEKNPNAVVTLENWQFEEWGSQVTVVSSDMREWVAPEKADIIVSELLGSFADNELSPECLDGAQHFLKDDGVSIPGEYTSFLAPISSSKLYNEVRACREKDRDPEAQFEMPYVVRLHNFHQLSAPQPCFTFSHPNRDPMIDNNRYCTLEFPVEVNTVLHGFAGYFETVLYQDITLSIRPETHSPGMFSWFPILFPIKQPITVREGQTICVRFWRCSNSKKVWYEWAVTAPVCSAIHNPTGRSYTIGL
# T1 sequence (Q9BQA1 with tags, fused parts or gaps partner limits assumed): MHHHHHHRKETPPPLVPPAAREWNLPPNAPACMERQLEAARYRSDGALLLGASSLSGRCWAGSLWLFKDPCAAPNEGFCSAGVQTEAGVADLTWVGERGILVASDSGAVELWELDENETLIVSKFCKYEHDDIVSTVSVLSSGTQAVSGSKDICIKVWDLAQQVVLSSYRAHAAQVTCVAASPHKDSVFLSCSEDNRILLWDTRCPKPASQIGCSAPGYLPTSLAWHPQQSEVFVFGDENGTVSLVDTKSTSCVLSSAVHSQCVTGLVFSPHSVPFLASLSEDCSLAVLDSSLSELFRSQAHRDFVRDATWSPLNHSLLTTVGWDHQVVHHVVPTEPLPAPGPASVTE
row,Structure (SMILES),IC50
1,O=C1Cc2ccccc2N1CC(O)CN1CCc2ccccc2C1 (stereo not shown) [Compound C1],101 to 1000 nM
2,O=c1cccc(CC(O)CN2CCc3ccccc3C2)[nH]1 (stereo not shown) [Compound C2],10000 to 50000 nM
3,Cc1cccc(N2CCN(CC(O)CN3CCc4ccccc4C3)C(=O)C2)c1 (stereo not shown) [Compound C3],10000 to 50000 nM
4,O=C1CN(c2cccc3cccnc23)CCN1CC(O)CN1CCc2ccccc2C1 (stereo not shown) [Compound C4],< 100 nM
5,O=C1CN(c2cccc(Cl)c2)CCN1CC(O)CN1CCc2ccccc2C1 (stereo not shown) [Compound C5],< 100 nM
6,O=C1CN(c2cccc(F)c2)CCN1CC(O)CN1CCc2ccccc2C1 (stereo not shown) [Compound C6],< 100 nM
7,O=C1CN(c2ccc(Cl)cc2)CCN1CC(O)CN1CCc2ccccc2C1 (stereo not shown) [Compound C7],< 100 nM
8,O=C1CN(c2cncc(N3CCOCC3)c2)CCN1CC(O)CN1CCc2ccccc2C1 (stereo not shown) [Compound C8],< 100 nM
9,O=C1CN(c2ccccc2Cl)CCN1CC(O)CN1CCc2ccccc2C1 (stereo not shown) [Compound C9],101 to 1000 nM
10,O=C1CN(c2cccc(N3CCOCC3)c2)CCN1CC(O)CN1CCc2ccccc2C1 (stereo not shown) [Compound C12],< 100 nM
11,Cc1ccc(N2CCN(CC(O)CN3CCc4ccccc4C3)C(=O)C2)cc1 (stereo not shown) [Compound C15],101 to 1000 nM
12,O=C1CC(c2ccccc2)CCN1C[C@H](O)CN1CCc2ccccc2C1 (stereo partly shown) [Compound C16],1000 to 10000 nM
13,O=C1CC(c2ccccc2)CCN1C[C@@H](O)CN1CCc2ccccc2C1 (stereo partly shown) [Compound C17],1000 to 10000 nM
14,O=c1cc(Nc2ccccc2)ccn1C[C@H](O)CN1CCc2ccccc2C1 [Compound C18],1000 to 10000 nM
15,O=c1cc(Nc2ccccc2)ccn1C[C@H](O)CN1CCc2ccccc2C1 [Compound C19],101 to 1000 nM
16,O=C1CN(c2ccc(CO)cc2)CCN1CC(O)CN1CCc2ccccc2C1 (stereo not shown) [Compound C20],101 to 1000 nM
17,CC(=O)N1CCN(CC(O)CN2CCc3ccccc3C2)C(=O)C1 (stereo not shown) [Compound C21],1000 to 10000 nM
18,CS(=O)(=O)N1CCN(CC(O)CN2CCc3ccccc3C2)C(=O)C1 (stereo not shown) [Compound C22],1000 to 10000 nM
19,O=C1CN(C2CCOCC2)CCN1CC(O)CN1CCc2ccccc2C1 (stereo not shown) [Compound C23],1000 to 10000 nM
20,O=C1CN(Cc2ccccc2)CCN1CC(O)CN1CCc2ccccc2C1 (stereo not shown) [Compound C24],1000 to 10000 nM
21,O=C1CN(Cc2ccccn2)CCN1CC(O)CN1CCc2ccccc2C1 (stereo not shown) [Compound C25],1000 to 10000 nM
22,O=C1CN(Cc2cccnc2)CCN1CC(O)CN1CCc2ccccc2C1 (stereo not shown) [Compound C26],1000 to 10000 nM
23,CN1CCN(CC(O)CN2CCc3ccccc3C2)C(=O)C1 (stereo not shown) [Compound C27],> 50000 nM
24,O=C1COCCN1CC(O)CN1CCc2ccccc2C1 (stereo not shown) [Compound C28],1000 to 10000 nM
25,CN(C)c1ccccc1N1CCN(C[C@H](O)CN2CCc3ccccc3C2)C(=O)C1 [Compound C29],101 to 1000 nM
26,CN(C)c1ccc(N2CCN(C[C@H](O)CN3CCc4ccccc4C3)C(=O)C2)cc1 [Compound C30],1000 to 10000 nM
27,O=C1COc2ccccc2N1CC(O)CN1CCc2ccccc2C1 (stereo not shown) [Compound C31],101 to 1000 nM
28,O=C(NC1CCOCC1)C1CC(=O)N(CC(O)CN2CCc3ccccc3C2)C1 (stereo not shown) [Compound C32],> 10000 nM

# Same assay, conditions: Table B-2; PRMT5/MEP50 4 nM, 3H-SAM 75 nM, peptide 40 nM; read-out: Biochemical IC50
row,Structure (SMILES),IC50
1,O=C(NCC(O)CN1CCc2ccccc2C1)c1cccc(CN2CCNCC2)c1 (stereo not shown) [Compound B29.],< 100 nM
2,CN1CCN(Cc2cccc(C(=O)NCC(O)CN3CCc4ccccc4C3)c2)CC1 (stereo not shown) [Compound B30.],< 100 nM
3,CS(=O)(=O)Nc1ccc(C(=O)NCC(O)CN2CCc3ccccc3C2)cc1 (stereo not shown) [Compound B31.],101 to 1000 nM
4,NS(=O)(=O)c1cccc(C(=O)NCC(O)CN2CCc3ccccc3C2)c1 (stereo not shown) [Compound B32.],101 to 1000 nM
5,NS(=O)(=O)c1ccccc1C(=O)NCC(O)CN1CCc2ccccc2C1 (stereo not shown) [Compound B33.],1000 to 10000 nM
6,CN1CCCC1c1cccc(C(=O)NCC(O)CN2CCc3ccccc3C2)c1 (stereo not shown) [Compound B34.],< 100 nM
7,O=C(NCC(O)CN1CCc2ccccc2C1)c1cccc(N2CCNCC2)c1 (stereo not shown) [Compound B35.],< 100 nM
8,CN1CCN(c2cccc(C(=O)NCC(O)CN3CCc4ccccc4C3)c2)CC1 (stereo not shown) [Compound B36.],< 100 nM
9,O=C(NCC(O)CN1CCc2ccccc2C1)c1cccc(C2CCNC2)c1 (stereo not shown) [Compound B37.],< 100 nM
10,CN1CCC(c2cccc(C(=O)NCC(O)CN3CCc4ccccc4C3)c2)C1 (stereo not shown) [Compound B38.],< 100 nM
11,CNCCOc1cccc(C(=O)NCC(O)CN2CCc3ccccc3C2)c1 (stereo not shown) [Compound B39.],101 to 1000 nM
12,Cc1c(NC2CCOCC2)cccc1C(=O)NCC(O)CN1CCc2ccccc2C1 (stereo not shown) [Compound B40.],< 100 nM
13,CCN(c1cccc(C(=O)NCC(O)CN2CCc3ccccc3C2)c1C)C1CCOCC1 (stereo not shown) [Compound B41.],< 100 nM
14,O=C(NCC(O)CN1CCc2ccccc2C1)c1cccc(C2CCCN2)c1 (stereo not shown) [Compound B42.],101 to 1000 nM
15,O=C(NC[C@@H](O)CN1CCc2ccccc2C1)c1cccc(NC2CCOCC2)c1 [Compound B43.],101 to 1000 nM
16,O=C(NC[C@H](O)CN1CCc2ccccc2C1)c1cccc(NC2CCOCC2)c1 [Compound B44.],< 100 nM
17,O=C(NCC(O)CN1CCc2ccccc2C1)c1cccc(NC2CCOC2)c1 (stereo not shown) [Compound B45.],< 100 nM
18,O=C(NCC(O)CN1CCc2ccccc2C1)c1cccc(C(=O)N2CCOCC2)c1 (stereo not shown) [Compound B46.],1000 to 10000 nM
19,CCN(c1cccc(C(=O)NCC(O)CN2CCc3ccccc3C2)c1)C1CCOCC1 (stereo not shown) [Compound B47.],101 to 1000 nM
20,O=C(NCC(O)CN1CCc2ccccc2C1)c1cccc(OC2CCOCC2)c1 (stereo not shown) [Compound B48.],101 to 1000 nM
21,CN(c1cccc(C(=O)NCC(O)CN2CCc3ccccc3C2)c1)C1CCOCC1 (stereo not shown) [Compound B49.],101 to 1000 nM
22,O=C(NCC(O)CN1CCc2ccccc2C1)c1cccc(NC2COC2)c1 (stereo not shown) [Compound B50.],101 to 1000 nM
23,O=C(NCC(O)CN1CCc2ccccc2C1)c1cccc(CN2CCOCC2)c1 (stereo not shown) [Compound B51.],101 to 1000 nM
24,CC(Nc1cccc(C(=O)NCC(O)CN2CCc3ccccc3C2)c1)C1CCOCC1 (stereo not shown) [Compound B52.],101 to 1000 nM
25,CC1(C)CC(Nc2cccc(C(=O)NCC(O)CN3CCc4ccccc4C3)c2)CCO1 (stereo not shown) [Compound B53.],101 to 1000 nM
26,O=C(NCC(O)CN1CCc2ccccc2C1)c1cncc(NC2CCOCC2)c1 (stereo not shown) [Compound B54.],< 100 nM
27,O=C(NCC(O)CN1CCc2ccccc2C1)c1cc(NC2CCOCC2)ccn1 (stereo not shown) [Compound B55.],< 100 nM
28,COc1cc(NC2CCOCC2)cc(C(=O)NCC(O)CN2CCc3ccccc3C2)c1 (stereo not shown) [Compound B56.],101 to 1000 nM
29,O=C(NCC(O)CN1CCc2ccccc2C1)c1cc(NC2CCOCC2)ccc1F (stereo not shown) [Compound B57.],101 to 1000 nM
30,O=C(NCC(O)CN1CCc2ccccc2C1)c1ccc(OC2CCOCC2)cc1 (stereo not shown) [Compound B58.],< 100 nM

# Same assay, conditions: Table D-2; read-out: Biochemical IC50
row,Structure (SMILES),IC50
1,OC(COC1CCCN(c2ccccc2)C1)CN1CCc2ccccc2C1 (stereo not shown) [Compound D2],1000 to 10000 nM
2,OC(COc1ccc(OCC(O)CN2CCc3ccccc3C2)cc1)CN1CCc2ccccc2C1 (stereo not shown) [Compound D3],101 to 1000 nM
3,OC(COc1cccc(CNC2CCCCC2)c1)CN1CCc2ccccc2C1 (stereo not shown) [Compound D4],101 to 1000 nM
4,OC(COc1cccc(CNC2CCOCC2)c1)CN1CCc2ccccc2C1 (stereo not shown) [Compound D5],101 to 1000 nM
5,OC(COc1cccc(CNc2cc[nH]n2)c1)CN1CCc2ccccc2C1 (stereo not shown) [Compound D6],101 to 1000 nM
6,OC(COc1ccccc1N1CCNCC1)CN1CCc2ccccc2C1 (stereo not shown) [Compound D7],10000 to 40000 nM

# Source: patent US20150344457A1, “METHODS OF INHIBITING PRMT5” (EPIZYME, INC., priority 2012, published 2015)
